In US8119691B2, “Method for treating airway hyper-responsiveness with lipoxin analogs” (National Institutes of Health (NIH), priority 2001, dated 2012):
Entries after “also recorded” stand apart in the source; their conditions may differ.

Columns and labels:
[1] = test system: OVA sensitized and challenged mice; test: Mediator profile (cytokines, lipid mediators) in BAL fluid by ELISA, OVA sensitized and challenged mice; type: in vivo, mouse (BALB/c); conditions: LXa 10 μg i.v.
Experimental: FIG. 3. […] Bronchoalveolar lavage fluids were obtained from OVA sensitized and challenged mice. Leukocytes in bronchoalveolar lavage fluid were enumerated and identified after Wright-Giemsa stain (a). Mediator profile of (b) specific cytokines (IL-5, IL-12, IL-13, eotaxin and TNFα), and lipid mediators, including PGE2 (c), LTB4 and cysLT's (d) were determined by ELISA's in materials from control animals and those receiving LXa (10 μg, i.v.). Results are expressed as mean±SEM (n≧6, d≧2). *P<0.05 by Student's t-test compared to control animals.
Sensitization and challenge protocols. Five to seven week old male BALB/c (Charles River Laboratories, Wilmington, Mass.) or female hCD11b-hALX FvB transgenic mice were housed in isolation cages under viral antibody-free conditions. After Harvard Medical Area IRB approval (Protocol #02570), mice were sensitized with intraperitoneal injections of ovalbumin (OVA) (Grade III; Sigma Chemical Co., St. Louis, Mo.) (10 μg) plus 1 mg aluminum hydroxide (ALUM) (J.T. Baker Chemical Co.; Phillipsburg, N.J.) as adjuvant in 0.2 ml PBS on days 0 and 7. On days 14, 15, 16 and 17, the mice received 10 μg/mouse of an analog (ref. 16) of LXA4 (15-epi,16-para-fluoro-phenoxy-LXA4-methyl ester, LXa) or PBS with 1.6 mM CaCl2 and 1.6 mM MgCl2 (0.1 ml) by intravenous injection at least 1 h prior to an aerosol challenge containing either PBS or 6% OVA for 25 min/day. The analog was designed to resist rapid enzymatic inactivation and was based on the structure of the aspirin-triggered 15-epi-LXA4 (ref. 16), which carries its carbon 15 position alcohol in the R configuration or epimeric (R) to native LXA4. On day 18, 24 h after the last aerosol challenge, airway responsiveness to intravenous methacholine (33-1000 μg/kg) was measured, bilateral bronchoalveolar lavage (BAL) (2 aliquots of 1 ml PBS plus 0.6 mM EDTA) was performed and tissues (whole blood, lungs, mediastinal lymph nodes and spleen) were harvested for histological analysis. Lung resistance (RL) was measured using a sealed constant mass plethysmograph. The effective dose of methacholine required to increase RL to 200% of control values was defined as the ED200 and used as an index of airway responsiveness (as in refs. 14, 15). For mice studied using a whole body plethysmograph to assess airway responsiveness (Buxco), each mouse was placed into a chamber and box pressure/time waveform was analyzed to yield the indicator of airflow obstruction, enhanced pause (Penh). PBS or methacholine (100 mg/ml) was given by aerosol through an inlet of the chamber for 4.5 min. Readings were initiated at 3 min and continued for 12 min. Peak and one min average Penh values were determined. Serum total IgE levels were determined by ELISA (Crystal Chem, Chicago, Ill.). In situ hybridization of murine ALX was performed using an anti-sense oligonucleotide probe (534 bp in length) corresponding to nucleic acids +581-+1115 (GenBank Accession No. NM008042) with the assistance of the Dana-Farber/Harvard Cancer Center Pathology Core Facility (under the direction of Dr. Massimo Loda).
Allergen-initiated respiratory inflammation. Measurement of inflammatory mediators was determined in cell-free BAL fluid (2000 g, 10 min) by sensitive and specific ELISA's, in tandem, for interleukin-5 (IL-5), IL-13, eotaxin, tumor necrosis factor (TNFα) (R&D Systems, Minneapolis, Minn.), LTB4, cysteinyl LT, PGE2 (Cayman Chemical Co., Ann Arbor, Mich.), and LXA4 (Neogen, Lexington, Ky.). Cells were resuspended in HBSS, enumerated by hemocytometer, and concentrated onto microscope slides by cytocentrifuge (STATspin) (265 g). Cells were stained with a Wright-Giemsa stain (Sigma Chemical Co.) to determine leukocyte differentials (after counting ≧200 cells).

mouse ear skin = test: Eosinophil tissue infiltration: EPO activity in mouse ear skin after topical LTB4 plus PGE2; type: in vivo; conditions: topical LXa 10 μg per ear, LTB4 1 μg + PGE2 1 μg, 13-16 h
Experimental: FIG. 6. Expression of human ALX in transgenic mice prevents eosinophil trafficking. LTB4 (1 μg) and PGE2 (1 μg) were topically applied (13-16 h) to mouse ear skin and EPO activity in tissue biopsies was determined by bromination of HPA (see Methods). Values represent the mean±SEM for pmoles Br-HPA per μg total protein for Non-tg littermates (n=6) or BLT-tg (n=2) mice in the absence or presence of topical LXa (10 μg per ear) and 2 separate ALX-tg lines (n=4). *P<0.05 by Student's T-test compared to littermate controls.
Eosinophil tissue infiltration. […] EPO activity was monitored by mono-bromination of HPA (Br-HPA). […] Trimethyl silylated HPA, Br-HPA and d4-tyrosine were detected by GC-MS (GC model #6890, MS model #5973, Hewlett Packard, San Fernando, Calif.). […] EPO activity was quantitated by percent conversion of HPA to Br-HPA, taking into account the recovery of the internal standard (>80%) and normalized for the samples' protein content (determined by BioRad protein reagent) (BioRad, Hercules, Calif.).

**Q.** How did the “CysLT's in BAL fluid” value [1] turn out when `COC(=O)CCC[C@H](O)[C@H](O)/C=C/C=C/C=C\C=C\[C@H](O)COc1ccc(F)cc1` [LXa, 15-epi,16-para-fluoro-phenoxy-LXA4-methyl ester] was run?
**A.** decreased

**Q.** What about the “IL-5 in BAL fluid” value [1] of the same molecule?
**A.** decreased

**Q.** And the “IL-12 in BAL fluid” value [1]?
**A.** not similarly reduced; also recorded: did not significantly alter IL-12 levels

**Q.** And the “IL-13 in BAL fluid” value [1]?
**A.** decreased

**Q.** And the “PGE2 in BAL fluid” value [1]?
**A.** decreased

**Q.** What about the “TNF in BAL fluid” value [1] of the same molecule?
**A.** not similarly reduced

**Q.** And the “eotaxin in BAL fluid” value [1]?
**A.** decreased

**Q.** What about the “eicosanoid-stimulated skin EPO activity” value (mouse ear skin; Non-tg mice) of the same molecule?
**A.** inhibited eicosanoid-stimulated skin EPO activity

**Q.** What about the “eicosanoid-stimulated skin EPO activity” value (mouse ear skin; mice with increased expression of LTB4 receptors (BLT-tg)) of the same molecule?
**A.** inhibited eicosanoid-stimulated skin EPO activity
